Where “and” joins values, the source holds several entries; their conditions need not be identical. Identical values can stand only once.
Tested on: clinically isolated M. tuberculosis
Experiment: microbe, parasite or virus in culture
Assay type: cell-based

C[C@]1(COc2ccc(N3CCC(Oc4ccc(OC(F)(F)F)cc4)CC3)cc2)Cn2cc([N+](=O)[O-])nc2O1 [OPC-67683, (R)-2-methyl-6-nitro-2-(4-[4-(4-trifluoromethoxyphenoxy)piperidin-1-yl]phenoxymethyl}-2,3-dihydroimidazo[2,1-b]oxazole]
Cross-resistance with the currently used anti-TB drugs: no cross-resistance | MIC90: 0.0134 µg/mL and 0.01221 µg/mL and 0.01279 µg/mL and 0.01341 µg/mL
